The values below come from patent publication US10407414B2, “Mannose derivatives for treating bacterial infections” (priority 2015, dated 2019).

The structures appear in SMILES notation.

The experiment deals with bacterial strain LF82 binding to the glycoprotein BSA-(Mannose)3 (FimH antagonists). Description: Bacterial Binding Assay (BBA). Type of experiment: cell-based, Escherichia coli. The conditions noted are these: read-out: Bacterial Binding Assay IC50 ± SEM. From the text: The purpose of the Bacterial Binding Assay (BBA) is to determine the inhibition activity of selective FimH antagonists on the bacterial strain LF82 binding to the glycoprotein BSA-(Mannose)3.
Below is a list of the Materials used to run the BBA are described below. • 1. LB broth: Supplier: Gibco, #10855 • 2. D-PBS: Supplier: Wisent, #311-425-CL • 3. LB agar plates • 4. 96-well black plate (high binding): Supplier: Costar, #3925 • 5. TopSeal™-A adhesive sealing films; Supplier PerkinElmer, #6005185 • 6. Carbonate-bicarbonate buffer pH 9.6 tablets, Supplier: Medicago, #09-8922-24 • 7. Water, Supplier: Gibco, #15230-162 • 8. Bovine serum albumin (BSA): Supplier: Sigma, #A-7888 • 9. (Man)3-BSA (α1-3, α1-6 Mannotriose-BSA, 1 mg), V-Labs, #NGP1336, lot# HGDX37-169-1 • 10. Tween 20: Supplier: Sigma, #P9416 • 11. Bright-Glo Luciferase Assay System: Supplier: Promega, #E2610 • 12. LF82/Luciferase strain: Invasive ability of an Escherichia coli strain isolated from the ileal mucosa of a patient with Crohn's disease. Boudeau J, Glasser A L, Masseret E, Joly B, Darfeuille-Michaud A, Infect Immun. 1999, 67(9), 4499-509
Solutions and buffers used to run the BBA are described below. • 1. 0.04M carbonate-bicarbonate buffer (coating buffer) • 2. 40 μg/mL BSA-(Man)3: Dissolve 1 mg of (Man)3-BSA in 25 mL of water. • 3. 4000 μg/mL BSA • 4. 40 μg/mL BSA • 5. 1 μg/mL BSA-(Man)3: 150 μL of 40 μg/mL BSA-(Man)3+5.85 mL of 40 μg/mL BSA • 6. 0.5 μg/mL BSA-(Man)3 in 0.02M carbonate-bicarbonate buffer. • 7. 20 μg/mL BSA in 0.02M carbonate-bicarbonate buffer • 8. Blocking buffer (2% BSA/DPBS): 1 g of BSA in 50 mL D-PBS • 9. 2× binding buffer (0.2% BSA/D-PBS): 5 mL of blocking buffer+45 mL D-PBS. • 10. Washing buffer (D-PBS/0.01% Tween 20): 10 μL of Tween 20 in 100 mL D-PBS. • 11. 1× Bright-Glo Luciferase substrate: Dilute 1:1 the Bright-Glo Luciferase Assay System with D-PBS
The experimental protocol used in this example to run the BBA is described below.
Overnight culture of LF82/Luciferase strain: Into two Falcon 50 mL tubes, add 20 mL of LB+20 μL of 50 mg/mL Kanamycin and inoculate with a loop from glycerol stock of the LF82/Luciferase strain. Incubate overnight at 37° C. with no shaking.
Glycoprotein coating of 96-well plates: Add 100 μL/well of 0.5-2 μg/mL BSA-(Man)3. 20 μg/mL BSA is used as the control background. Seal plate using an adhesive sealing film and incubate overnight at room temperature. Wash the 96-well plate three times with 150 μL/well of D-PBS, add 170 μL/well of blocking solution and incubate 45 min (minimum) at room temperature.
Preparation of bacterial suspension: Mix the two cultures tubes (40 mL) and perform a 1:10 dilution in LB (900 μl LB+100 μl culture. Measure optical density (OD) of the bacterial cultures. OD1 ˜5×10^8 cells/mL. Centrifuge LF82 culture for 20 min at 3500 rpm at room temperature. Re-suspend bacterial pellet in D-PBS and centrifuge again for 20 min at 3500 rpm. Re-suspend bacterial pellet in D-PBS to obtain a bacterial concentration of 2×10^9 bacteria/mL. Dilute 1/10 in D-PBS to obtain a final bacterial concentration of 2×10^8 bacteria/mL (=107 bacteria/50 μL). Perform 1/10 serial dilutions in LB of each bacterial suspension, plate 10 μL of dilutions on LB agar plates (final dilutions of 10^−7) and incubate overnight at 37° C. and count CFUs to determine the actual bacteria density in the assay.
Bacterial binding assay: Add 147 μL 2× binding buffer to compound plate (containing 3 μL of compound). After blocking step is performed (at least 45 min), wash plates three times with 200 μL/well of D-PBS. With a 100 μL multichannel manual pipettor, add 50 μL/well of compound diluted in 2× binding buffer. With a 100 μL multichannel manual pipettor, add 50 μL/well of bacterial suspension. Agitate at slow speed for 1 min and incubate 40-75 min at room temperature. Wash 5 times with 150 μL/well of washing buffer and then once with D-PBS. Add 100 μL/well of 1× Bright-Glo Luciferase substrate. […]
By IC50 is commonly meant the concentration needed to halve the response being measured. With `Cc1nnc(-c2ccc(-c3cc(C#C[C@H]4O[C@H](CO)[C@@H](O)[C@H](O)[C@@H]4O)c4[nH]ncc4c3)cc2)o1` [Compound 39, (2R,3S,4R,5S,6R)-2-(hydroxymethyl)-6-[2-[5-[4-(5-methyl-1,3,4-oxadiazol-2-yl)phenyl]-1H-indazol-7-yl]ethynyl]tetrahydropyran-3,4,5-triol], the IC50 was 0.2 ± 0.05 nM.

On to `CCCCc1cc(C#C[C@H]2O[C@H](CO)[C@@H](O)[C@H](O)[C@@H]2O)c2[nH]ncc2c1` [Compound 24, (2R,3S,4R,5S,6R)-2-[2-(5-butyl-1H-indazol-7-yl)ethynyl]-6-(hydroxymethyl)tetrahydropyran-3,4,5-triol], for which the 50% inhibitory concentration (IC50) was 1 ± 0.2 nM.

For `CN(C)c1ccc(-c2cc(C#C[C@H]3O[C@H](CO)[C@@H](O)[C@H](O)[C@@H]3O)c3[nH]ncc3c2)cc1` [Compound 29, (2R,3S,4R,5S,6R)-2-[2-[5-[4-(dimethylamino)phenyl]-1H-indazol-7-yl]ethynyl]-6-(hydroxymethyl)tetrahydropyran-3,4,5-triol], the IC50 turned out to be 1 ± 0.7 nM.

In the case of `OC[C@H]1O[C@H](C#Cc2cccc3nn[nH]c23)[C@@H](O)[C@@H](O)[C@@H]1O` [Compound 8, (2R,3S,4R,5S,6R)-2-[2-(3H-benzotriazol-4-yl)ethynyl]-6-(hydroxymethyl)tetrahydropyran-3,4,5-triol], the half-inhibitory concentration (IC50) was 180 ± 40 nM.

In the case of `Cn1ncc2cccc(C#C[C@H]3O[C@H](CO)[C@@H](O)[C@H](O)[C@@H]3O)c21` [Compound 13, (2R,3S,4R,5S,6R)-2-(hydroxymethyl)-6-[2-(1-methylindazol-7-yl)ethynyl]tetrahydropyran-3,4,5-triol], the IC50 came out at 480 ± 150 nM.

With `COc1ccc(-c2cc(C#C[C@H]3O[C@H](CO)[C@@H](O)[C@H](O)[C@@H]3O)c3[nH]ncc3c2)cc1` [Compound 30, (2R,3S,4R,5S,6R)-2-(hydroxymethyl)-6-[2-[5-(4-methoxyphenyl)-1H-indazol-7-yl]ethynyl]tetrahydropyran-3,4,5-triol], the concentration for half-maximal inhibition (IC50) is 0.5 ± 0.2 nM.

Regarding `CCCCc1cc(C#C[C@H]2O[C@H](CO)[C@@H](O)[C@H](O)[C@@H]2O)c2[nH]nnc2c1` [Compound 19, (2R,3S,4R,5S,6R)-2-[2-(6-butyl-3H-benzotriazol-4-yl)ethynyl]-6-(hydroxymethyl)tetrahydropyran-3,4,5-triol], the IC50 is 2 ± 0.6 nM.

In the case of `OC[C@H]1O[C@H](C#Cc2nccc3cn[nH]c23)[C@@H](O)[C@@H](O)[C@@H]1O` [Compound 14, (2R,3S,4R,5S,6R)-2-(hydroxymethyl)-6-[2-(1H-pyrazolo[3,4-c]pyridin-7-yl)ethynyl]tetrahydropyran-3,4,5-triol], the IC50 turned out to be 350 ± 80 nM.

For the compound `Cc1cc(F)ccc1-c1cc(C#C[C@H]2O[C@H](CO)[C@@H](O)[C@H](O)[C@@H]2O)c2[nH]ncc2c1` [Compound 94, (2R,3S,4R,5S,6R)-2-[2-[5-(4-fluoro-2-methyl-phenyl)-1H-indazol-7-yl]ethynyl]-6-(hydroxymethyl)tetrahydropyran-3,4,5-triol], the IC50 came out at 0.6 ± 0.3 nM.

For `OC[C@H]1O[C@H](C#Cc2cc(-c3ccc4nccn4c3)cc3cn[nH]c23)[C@@H](O)[C@@H](O)[C@@H]1O` [Compound 32, (2R,3S,4R,5S,6R)-2-(hydroxymethyl)-6-[2-(5-imidazo[1,2-a]pyridin-6-yl-1H-indazol-7-yl)ethynyl]tetrahydropyran-3,4,5-triol], the IC50 came to 0.6 ± 0.005 nM.

For the compound `CCN(CC)CC#Cc1cc(C#C[C@H]2O[C@H](CO)[C@@H](O)[C@H](O)[C@@H]2O)c2[nH]ncc2c1` [Compound 53, (2R,3S,4R,5S,6R)-2-[2-[5-[3-(diethylamino)prop-1-ynyl]-1H-indazol-7-yl]ethynyl]-6-(hydroxymethyl)tetrahydropyran-3,4,5-triol], the concentration for half-maximal inhibition (IC50) is 4 ± 0.5 nM.

Consider `O=C(O)c1cc(C#C[C@H]2O[C@H](CO)[C@@H](O)[C@H](O)[C@@H]2O)c2[nH]ncc2c1` [Compound 58, 7-[2-[(2R,3S,4R,5S,6R)-3,4,5-trihydroxy-6-(hydroxymethyl)tetrahydropyran-2-yl]ethynyl]-1H-indazole-5-carboxylic acid], for which the concentration for half-maximal inhibition (IC50) turned out to be 74 ± 15 nM.

Turning to `CCOc1cc(C)c(-c2cc(C#C[C@H]3O[C@H](CO)[C@@H](O)[C@H](O)[C@@H]3O)c3[nH]ncc3c2)cn1` [Compound 54, (2R,3S,4R,5S,6R)-2-[2-[5-(6-ethoxy-4-methyl-3-pyridyl)-1H-indazol-7-yl]ethynyl]-6-(hydroxymethyl)tetrahydropyran-3,4,5-triol], the IC50 was 0.4 ± 0.1 nM.

Take `OC[C@H]1O[C@H](C#Cc2cc(-n3cc(-c4ccccc4)nn3)cc3cn[nH]c23)[C@@H](O)[C@@H](O)[C@@H]1O` [Compound 66, (2R,3S,4R,5S,6R)-2-(hydroxymethyl)-6-[2-[5-(4-phenyltriazol-1-yl)-1H-indazol-7-yl]ethynyl]tetrahydropyran-3,4,5-triol]: the 50% inhibitory concentration (IC50) came out at 2 nM.

As for `Cn1cnc2ccc(-c3cc(C#C[C@H]4O[C@H](CO)[C@@H](O)[C@H](O)[C@@H]4O)c4[nH]ncc4c3)cc21` [Compound 33, (2R,3S,4R,5S,6R)-2-(hydroxymethyl)-6-[2-[5-(3-methylbenzimidazol-5-yl)-1H-indazol-7-yl]ethynyl]tetrahydropyran-3,4,5-triol], the IC50 stood at 0.4 ± 0.05 nM.

For `CC(C)(C)C#Cc1cc(C#C[C@H]2O[C@H](CO)[C@@H](O)[C@H](O)[C@@H]2O)c2[nH]ncc2c1` [Compound 44, (2R,3S,4R,5S,6R)-2-[2-[5-(3,3-dimethylbut-1-ynyl)-1H-indazol-7-yl]ethynyl]-6-(hydroxymethyl)tetrahydropyran-3,4,5-triol], the IC50 came out at 5 ± 0.5 nM.

With `OCC#Cc1cc(C#C[C@H]2O[C@H](CO)[C@@H](O)[C@H](O)[C@@H]2O)c2[nH]ncc2c1` [Compound 48, (2R,3S,4R,5S,6R)-2-(hydroxymethyl)-6-[2-[5-(3-hydroxyprop-1-ynyl)-1H-indazol-7-yl]ethynyl]tetrahydropyran-3,4,5-triol], the IC50 is 9 ± 0.7 nM.

Regarding `OC[C@H]1O[C@H](C#Cc2cc(C3=CCCC3)cc3cn[nH]c23)[C@@H](O)[C@@H](O)[C@@H]1O` [Compound 70, (2R,3S,4R,5S,6R)-2-[2-[5-(cyclopenten-1-yl)-1H-indazol-7-yl]ethynyl]-6-(hydroxymethyl)tetrahydropyran-3,4,5-triol], the IC50 came out at 0.2 ± 0.04 nM.

As to `OC[C@H]1O[C@H](C#Cc2cccc3cn[nH]c23)[C@@H](O)[C@@H](O)[C@@H]1O` [Compound 1, (2R,3S,4R,5S,6R)-2-(hydroxymethyl)-6-[2-(1H-indazol-7-yl)ethynyl]tetrahydropyran-3,4,5-triol], the IC50 worked out at 98 ± 22 nM.

For `CNC(=O)c1cc(C#C[C@H]2O[C@H](CO)[C@@H](O)[C@H](O)[C@@H]2O)c2[nH]ncc2c1` [Compound 62, N-methyl-7-[2-[(2R,3S,4R,5S,6R)-3,4,5-trihydroxy-6-(hydroxymethyl)tetrahydropyran-2-yl]ethynyl]-1H-indazole-5-carboxamide], the 50% inhibitory concentration (IC50) is 34 ± 20 nM.
